Consider 2 molecules from US10227356B2, “Compounds, compositions and methods for inhibiting CNKSR1” (Phusis Therapeutics, Inc., priority 2015, dated 2019).

Molecules are shown by their SMILES. pIC50, pKd: −log10 of the molar value.

Test [1] has as its target T1, PLEKHA7 PH-domain (Homo sapiens, UniProt Q6IQ23).
T1 construct: The plekstrin homology domain of CNK and PLEKHA7 expressed with GST at the N-terminus; made in house
T1 sequence (Q6IQ23 164-282 limits assumed): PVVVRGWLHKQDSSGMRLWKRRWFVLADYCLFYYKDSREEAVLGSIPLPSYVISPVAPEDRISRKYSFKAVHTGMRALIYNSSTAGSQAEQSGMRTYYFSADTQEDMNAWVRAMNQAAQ
Put plainly: Surface plasmon resonance binding to PLEKHA7 PH-domain. The conditions noted are these: SPR; read-out: PLEK KD. As for the experimental part:
The plekstrin homology domain of CNK and PLEKHA7 expressed with GST at the N-terminus, CNK(PH)-GST were immobilized on a CM5 chip. Analysis of potential small molecule drug binding was done using a Biacore T200. Immobilization of antibody was run at 37° C. and a flow rate of 5 μL/min. A freshly prepared mixture of aqueous 0.4M 1-ethyl-3-(3-dimethylaminopropyl)carbodiimide hydrochloride (EDC) and aqueous 0.1M N-hydroxysuccinamide (NETS), (0.2M/0.05M EDC/NHS solution) is injected for 480 seconds over a conditioned (Tanious, et al doi:10.1016/50091-679X(07)84003-9) CM5 chip flow cell. The activated surface is then injected at 37° C., flow rate of 5 μL/min for 480 sec with 30 μg/mL anti-GST antibody, freshly suspended in pH 5.0 10 mM acetate buffer. Expected capture is 12000-20000 response units (RU). The remaining active surface is deactivated with 480 sec injections of 0.1M ethylenediamine in borate buffer (GE Healthcare) and then 1M ethanolamine pH 8.5 to provide 10000-18000 RU of covalently linked antibody on the flow cell. An upstream reference flow cell (Fc1) and a downstream working flow cell (Fc2) are prepared in this manner. […] Binding responses were determined 4 seconds prior to the conclusion of the injection. […]

Test [2] relates to mut-KRas NSCLC lines. Put plainly: Proliferation assay 3D, mut-KRas NSCLC lines. In kind it is cell-based. As for the experimental part:
The plates were optimized for the best cell density and found to be 20,000 cells per mL. The lid was removed from a 96-well Greiner plate and turned upside down. 20 μL of the 20,000 cells per mL suspension was then added directly into the middle of the circles found on the lid of the 96-well plate forming a small drop. 100 μL of media was added into the corresponding wells, used to maintain the […] of the drops, and the lid was flipped back over carefully placing it back onto the plate without disturbing the drop. The plate was then placed into the incubator for 3 days to allow the cells to migrate to the bottom of the drop due to gravity. After 3 days, […] of media was added to the corresponding wells a SCIVAX 96-well plate. The lid from the Greiner 96-well plate was removed and placed onto the SCIVAX plate allowing the drop to come in contact with the media and placed back into the incubator. After one hour, 200 μL of media was removed from the corresponding wells carefully without disturbing the spheroid and imaged.

In test [3] the test system is wt-KRAS cells. Put plainly: Proliferation assay, wt-KRAS cell lines. The format is cell-based. Particulars: average over wt-KRAS lines; read-out: Ave IC50 wt-KRAS. As for the experimental part:
(§1) These cells were cultured in McCoys media with 10% FBS to 80% confluency. […] Cells were incubated for 72 hours with the drugs, and then viability was assessed using an MTS viability assay. Cells were exposed to MTS reagent (Promega) dissolved in PBS (Hyclone) at a concentration of 200 μL reagent/mL media for 2 hours. Absorbance was then read at 490 nm, and viability was expressed as a percentage normalized between the negative control (no cells plated) and the condition of cells with no drug added (100% viability) normalized as the upper limit of viability. A panel of 30 cell lines and an extensive characterization were obtained from Dr. John Minna (UTSW). All cell lines were cultured in RPMI 1640 with 10% FBS. […] IC50's were determined using Excelfit.

Test [4] has as its target T2, CNK1 (Homo sapiens, UniProt Q969H4).
T2 construct: The PH-domain His-fusion proteins (CNK1 and AKT1) were expressed and immobilized on a NTA chip; made in house
T2 sequence (Q969H4 403-502 limits assumed): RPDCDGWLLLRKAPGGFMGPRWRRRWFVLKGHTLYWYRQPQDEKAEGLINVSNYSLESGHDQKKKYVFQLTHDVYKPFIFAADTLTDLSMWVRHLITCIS
Description: SPR competition, CNK1 binding to PIP3. Particulars: read-out: SPR Competition Percent inhibition of CNK1 binding to PIP3 at 50 μM, X = none.

Test [5] deals with mut-KRas NSCLC lines. Description: Proliferation assay 2D, mut-KRas NSCLC lines. In kind it is cell-based. As for the experimental part:
A panel of 30 cell lines and an extensive characterization were obtained from Dr. John Minna (UTSW). All cell lines were cultured in RPMI 1640 with 10% FBS. Cells were treated with concentrations of agents at concentrations 0.01 to 50 μM and evaluated as described above. IC50's were determined using Excelfit.

Test [6] has as its system mut-KRAS cells. Put plainly: Proliferation assay, mut-KRAS cell lines. In kind it is cell-based. The conditions noted are these: average over mut-KRAS lines; read-out: Ave IC50 mut-KRAS. As for the experimental part:
as §1

Test [7] concerns the target T3, PH-domain of CNKSR1 (Homo sapiens, UniProt Q969H4).
T3 construct: The PH-domain His-fusion proteins (CNK1 and AKT1) were expressed and immobilized on a NTA chip; made in house
T3 sequence (Q969H4 403-502 limits assumed): T2 sequence (Q969H4 403-502 limits assumed)
Put plainly: Surface plasmon resonance binding to CNK PH-domain. The conditions noted are these: Summary table for CNKSR1 inhibitors; read-out: SPR Kd. The source says:
The PH-domain His-fusion proteins (CNK1 and AKT1) were expressed and immobilized on a NTA chip to a level of 10,000 response units or less.
Additionally, ligand-based approaches provided an alternative to structure based drug discovery.

Regarding `CCOC(=O)/C=C/c1cc(NS(=O)(=O)c2cccs2)c2c(c1O)OCO2` [Compound 88, (E)-ethyl 3-(4-hydroxy-7-(thiophene-2-sulfonamido)benzo[d][1,3]dioxol-5-yl)acrylate], the pKd in test [1] is 3.58.

Take `COc1c(/C=C/C(=O)NC2CC2)c(NS(=O)(=O)c2cccs2)cc2c1OCO2` [Compound 110]: the “In vitro IC50 against mut-KRas NSCLC 3D ave” value in test [2] (mean of 6 mut-KRas NSCLC lines) is 1.2 µM. For the same molecule, the pIC50 was 4.12 to 6.64 in test [2] (range across mut-Kras cell lines, read-out: In vitro IC50 against mut-KRas NSCLC 3D range); 4.45 in test [3]; 4.00 to 5.37 in test [5] (range across mut-Kras cell lines, read-out: In vitro IC50 against mut-KRas NSCLC 2D range); 5.92 in test [6]. In addition, the inhibition at 50 µM in test [4] is 0%. The “In vitro IC50 against mut-KRas NSCLC 2D ave” value in test [5] (mean of 12 mut-KRas NSCLC lines) is 15.7 µM. Besides, the pKd in test [7] is greater than 4.30.
